Assay [1] concerns PC12 cells. Description: Neuritogenesis in PC12 cells. It is filed as cell-based, rat. Set-up: key to Neuritogenesis: fraction of cells bearing neurites (mean ± SEM). The gist of the method: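 Rat pheochromocytoma PC12 cells on poly-ornithine were treated with AIT-082 alongside saturating NGF (40 ng/ml) from plating for 48 h, then formalin-fixed. Neurites ≥1 cell-body diameter with growth cone were counted; the neurite-bearing fraction is expressed relative to NGF alone (100%), mean ±SEM of 6 cultures.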

Assay [2] relates to TGFβ2. Description: TGFβ2 release from rat cultured astrocytes (ELISA). Format: cell-based. As to the method: NGF and TGFβ2 levels were assayed in the culture medium of the astrocytes by specific ELISA assays using kits from Roche (Germany) and Promega (USA) respectively. NGF basal levels were 56.3±3.2 pg/ml. TGFβ2 levels were 9.1±0.06 pg/ml.
In FIG. 61, the dose-response curves of NGF and TGFβ2 release from rat cultured astrocytes as the result of exposure to AIT-082 are shown.
On the technique in general: In an ELISA, binding on a coated surface is turned into a signal by an enzyme label.

Assay [3] concerns MAP kinases ERK1 (44 kDa) and ERK2 (42 kDa). Description: Western blot of phospho-ERK1/2 in cultured astrocytes. Format: cell-based, rat. As to conditions: for activation (phosphorylation) of MAP kinases ERK1 and ERK2: astrocyte cytosolic proteins. On the procedure: In FIG. 60, the activation of MAP kinases ERK1 (44 kDa) and ERK2 (42 kDa) by guanosine is shown. Cultured astrocytes were harvested at 4° C. in lysis buffer specific for MAP kinase: 25 mM Tris buffer, pH 7.4, containing 150 mM NaCl, 100 μM sodium orthovanadate, 1.5 mM MgCl2, 1.0 mM EDTA, 1% NP40, 10% glycerol, 1 mM PMSF, 5 μg/ml leupeptin, and 10 μg/ml aprotinin and sonicated and centrifuged at 14,000 rpm for 5 min. Aliquots of the supernatants were processed for the assessment of protein concentration (M. M. Bradford, “A Rapid and Sensitive Method for the Quantitation of Microgram Quantities of Protein Using the Principle of Protein-Dye Binding,” Anal. Biochem. 72: 248-254 (1976)). Electrophoresis was performed in 12% SDS-PAGE, using 20 μg of total protein per lane and separated proteins were then transferred onto a PVDF membrane (Bio-Rad Laboratories, Italy). Membranes were first incubated with polyclonal primary antibody (rabbit phospho-ERK1/2 antibody, New England Biolabs, Germany; final dilution 1:1000) for 1 hour and then with donkey anti-rabbit HPR-conjugated secondary antibody (Amersham, Italy; final dilution 1:5000) for another 1 hour, both at room temperature. Immunocomplexes were visualized using the enhancing chemiluminescence detection system (ECL) (Amersham, Italy).
This activation was no longer evident after 10 minutes or 20 minutes of stimulation. […] This effect is likely independent of the activity of growth factors, such as NGF, that also act through this molecular pathway. Cultured astrocytes were harvested at 4° C. in lysis buffer specific for MAP kinase: 25 mM Tris buffer, pH 7.4, containing 150 mM NaCl, 100 μM sodium orthovanadate, 1.5 mM MgCl2, 1.0 mM EDTA, 1% NP40, 10% glycerol, 1 mM PMSF, 5 μg/ml leupeptin, and 10 μg/ml aprotirin and sonicated and centrifuged at 14,000 prm for 5 min. Aliquots of the supernatants were processed for the assessment of protein concentration (Bradford, 1976). […]

Assay [4] concerns S100β protein. The assay is described as follows: S100β protein release from rat cultured astrocytes (ELISA). It is filed as cell-based. As to conditions: for release of S100β protein from astrocytes: exposure for 24 hours. As to the method: The S100β protein was measured by using an ELISA as described in A. Aurell et al., “The S-100 Protein in Cerebrospinal Fluid: A Simple ELISA Method,” J.Neurol. Sci. 89: 157-164 (1989).
The NGF and S100β protein were measured by removing the cultured medium for the ELISA assays at each indicated time point.

On to `O=C(CCn1cnc2c(=O)[nH]cnc21)Nc1ccc(C(=O)O)cc1` [AIT-082, N-4-carboxyphenyl-3-(6-oxohydropurin-9-yl)propanamide], for which the Neuritogenesis in assay [1] (AIT-082 10 μM, L-NAME 0.1 μM) is given as 0.220 ± 0.010; in assay [1] (AIT-082 10 μM, L-NAME 1.0 μM), 0.302 ± 0.027; in assay [1] (AIT-082 10 μM, L-NAME 10.0 μM), 0.254 ± 0.018; in assay [1] (AIT-082 10 μM, L-NAME None) it was 0.254 ± 0.008; in assay [1] (AIT-082 100 μM, L-NAME 0.1 μM) it was 0.257 ± 0.016; in assay [1] (AIT-082 100 μM, L-NAME 1.0 μM), 0.232 ± 0.019. Moreover, the Neuritogenesis worked out at 0.289 ± 0.006 in assay [1] (AIT-082 100 μM, L-NAME 10.0 μM) and 0.309 ± 0.027 in assay [1] (AIT-082 100 μM, L-NAME None). In addition, the “Proportion of cells bearing neurites, AIT-082 + NGF” value worked out at 0.26 ± 0.01 in assay [1] (AIT-082 10 mM + NGF 40 ng/ml, no inhibitor); 0.17 ± 0.02 in assay [1] (AIT-082 + NGF 40 ng/ml, Methemoglobin 1 μM); 0.10 ± 0.01 in assay [1] (AIT-082 + NGF 40 ng/ml, Methylene Blue 5 μM); 0.13 ± 0.01 in assay [1] (AIT-082 + NGF 40 ng/ml, Zn Protoporphyrin IX 1 μM). In assay [1] (AIT-082 10 mM, no NGF, no inhibitor, 48 hours), the “Proportion of cells bearing neurites, AIT-082 alone” value came out at 0.2 ± 0.02. Further, the “concentration effective in stimulating neuritogenesis and enhancing NGF-stimulated neuritogenesis” value in assay [1] (PC12 cells, 48 hours) is 1 mM. The “neuritogenesis compared with NGF” value in assay [1] (PC12 cells, 48 hours) is “as effective as NGF”. In addition, the “enhancement of the optimal effects of NGF on neuritogenesis” value in assay [1] (with 40 ng/ml NGF, 48 hours) came to 30%. Moreover, the “increase of TGFβ2 production as compared to a control” value in assay [2] (rat cultured astrocytes) is reported as 1.7 fold. Further, the “time of maximal activation of the enzyme cascade” value in assay [3] (AIT-082 100 μM, no longer evident after 10 or 20 minutes) turned out to be 5 min. For the same compound, the “activation (phosphorylation) of MAP kinases ERK1 and ERK2” value in assay [3] was “stimulated the phosphorylation of MAP kinases ERK1 (44 kDa) and ERK2 (42 kDa)”. The “time of peak release of S100β protein” value in assay [4] (AIT-082 100 μM) is on record as “peaked within three hours”. In addition, the “release of S100β protein from astrocytes” value in assay [4] was “dose-dependent increase”.

With `Nc1nc2c(ncn2[C@@H]2O[C@H](CO)[C@@H](O)[C@H]2O)c(=O)[nH]1` [guanosine], the “neurite outgrowth in the absence of NGF” value in assay [1] (compound alone) is “slightly increased the proportion of cells with neurites”. The “enhancement of NGF-induced neurite outgrowth” value in assay [1] (in the presence of NGF, 48 hours) is “enhanced the neurite outgrowth induced by NGF”. Moreover, the “release of TGFβ2 from astrocytes” value in assay [2] (exposure for 24 hours) is recorded as “dose-dependent increase”. In addition, in assay [3], the “activation (phosphorylation) of MAP kinases ERK1 and ERK2” value is recorded as “activation”. Also, the “release of S100β protein from astrocytes” value in assay [4] is “dose-dependent increase”.
